pIC50: −log10 of the molar value. Read-outs that look alike come from different tables or passages of the source.
Legend:
[1] = test system: stimulated PBMC (actively dividing cells); test: IC50 on stimulated PBMC (intrinsic toxicity); format: cell-based; conditions: Homo sapiens, stimulated PBMC
Description: The IC50 in PBMC were tested in 2 different activation status: • stimulated—actively dividing cells • resting—quiescent, non-dividing cells
IC50 of the compounds was determined on fresh cells isolated from human blood (PBMC).

[2] = test system: HT29 epithelial intestinal cancer cells; test: MTT colorimetric assay on HT29; format: cell-based; conditions: Homo sapiens, 72 h
Description: The experiment was performed to test and define anticancer activity in vitro of Cortexolone 17α-benzoate and cortexolone 17α-valerate-21-propionate on cell lines representatives of epithelial intestinal tumors, namely HT29. The experiment method consisted in: • 1. Monolayer HT-29 cells were plated in: 96-wells plates at the density of 2×10^4 cells/mL. The cells plated were kept at 37° C. in 5% CO2 and left to attach for 24 h. • 2. Thereafter the cells were incubated for 72 h with the test compounds at the concentrations each of […]. • 3. After 72 h of treatment, the MTT colorimetric assay was performed.

[3] = test system: 22Rv1 prostate cancer cells; test: In vitro proliferation, 22Rv1; format: cell-based; conditions: Homo sapiens, Table III, read-out: in vitro proliferation IC50 (μ/M)
Description: Each compounds was titrated from 3 uM to 200 uM.

MDA-MB-231 TNBC cells = test: In vitro proliferation / cytotoxic assay, MDA-MB-231; format: cell-based; conditions: Homo sapiens; MDA-MB-231 (ER−PR−GR++); 72 hours; Table VI; unit inferred; read-out: IC50 on breast cancer cells
Description: After 72 hours incubation cell were harvested, lysed and viability determined using the cell titer glow assay for viability.

wild type AR (AR-LBD) = target: T1, wild type AR (AR-LBD) (Rattus norvegicus, UniProt P15207); test: AR competition binding assay (Polar Screen, fluorescence polarization); conditions: displacement of Fluormone AL Green from AR-LBD; read-out: affinity for AR receptor (IC50 molar)
T1 construct: purchased life Technologies
T1 sequence (P15207 651-882 limits assumed): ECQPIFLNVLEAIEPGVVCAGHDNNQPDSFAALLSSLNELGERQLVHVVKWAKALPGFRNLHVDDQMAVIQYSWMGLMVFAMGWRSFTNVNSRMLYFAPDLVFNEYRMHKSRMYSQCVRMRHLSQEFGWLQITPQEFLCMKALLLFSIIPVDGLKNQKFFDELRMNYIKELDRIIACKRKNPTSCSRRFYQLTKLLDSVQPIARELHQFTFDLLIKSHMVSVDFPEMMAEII
Description: Briefly, the AR was added to a fluorescent androgen ligand (Fluormone™ AL Green) to from the complex AR-LBD. Competitors displaced the fluorescent Fluormone™ AL Green ligand from the AR-LBD causing the fluorescent ligand to tumble rapidly during its fluorescence lifetime, resulting in a low polarization value. Non competitors will not displace the fluorescent ligand from the complex, so the polarization value remains high. The shift in polarization value in the presence of test compounds is used to determine relative affinity of test compounds for AR-LBD.

Glucocorticoid Receptor = target: T2, Glucocorticoid Receptor (Homo sapiens, UniProt P04150); test: GR reporter assay, agonist mode; format: cell-based; conditions: at very high concentrations
T2 construct: endogenous in cells; host or cells: human kidney epithelial cells
T2 sequence (P04150 1-777): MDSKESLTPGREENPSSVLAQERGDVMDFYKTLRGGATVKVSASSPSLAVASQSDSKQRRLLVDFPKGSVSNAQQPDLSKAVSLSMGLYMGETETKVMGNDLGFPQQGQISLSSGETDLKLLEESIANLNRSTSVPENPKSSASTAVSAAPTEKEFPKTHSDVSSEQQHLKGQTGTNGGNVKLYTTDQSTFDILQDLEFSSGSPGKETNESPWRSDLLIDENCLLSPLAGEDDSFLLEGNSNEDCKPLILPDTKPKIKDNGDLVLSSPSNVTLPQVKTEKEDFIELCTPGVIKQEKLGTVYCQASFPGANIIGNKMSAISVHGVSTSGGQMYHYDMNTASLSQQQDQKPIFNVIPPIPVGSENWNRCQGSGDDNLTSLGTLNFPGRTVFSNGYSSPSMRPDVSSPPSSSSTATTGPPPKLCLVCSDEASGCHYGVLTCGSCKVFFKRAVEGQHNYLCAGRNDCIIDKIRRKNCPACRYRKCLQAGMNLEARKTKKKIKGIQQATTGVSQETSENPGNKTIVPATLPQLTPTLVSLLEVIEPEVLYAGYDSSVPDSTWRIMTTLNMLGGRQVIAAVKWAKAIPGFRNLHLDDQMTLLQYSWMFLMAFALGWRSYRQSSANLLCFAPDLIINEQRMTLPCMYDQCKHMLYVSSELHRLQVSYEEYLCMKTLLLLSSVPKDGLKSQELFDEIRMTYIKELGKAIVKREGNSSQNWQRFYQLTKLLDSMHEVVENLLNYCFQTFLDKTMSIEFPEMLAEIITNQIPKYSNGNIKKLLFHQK
Description: The androgen and glucocorticoid hormones elicit divergent and often opposing effects in cells, tissues, and animals. […] CB-03-10 GR antagonist and agonist activities were tested in an in vitro assay. Briefly, human kidney epithelial cells were transfected with DNA construct containing GR binding sites linked to luminescent based reporter molecule. After 24 hours, cells were treated under antagonist or agonist modes. After an additional 24 hours, luminescence which is proportional to GR agonist transcriptional activity was quantitated.
Agonist Assay—was based on induction of luminescence by CB-03-10
The agonist activity of CB-03-10 was compared to a RU486 which is known to not have agonist activity.

MiaPaca2 cells = test: Annexin V / propidium iodide apoptosis assay; format: cell-based, human; conditions: 24 hours, control 11%
Description: CB-03-10 was evaluated to determine if the mechanism of cytotoxicity on cancer cell lines was mediated by apoptosis and cell cycle arrest. Cancer cell lines were seeded in 6-well flat bottom plates. After 24 hours test compounds or DMSO vehicle (negative control) were added. After an additional 24 hours cells were scraped and stained with fluorescein conjugated Annexin V and propidium iodide and analyzed by flow cytometry.

[4] = test system: Caspase 8, 9 and 3/7 in LNCaP cells; test: Caspase activity in LNCaP cells; format: cell-based, human; conditions: 24 hours
Description: After 24 hours test compounds were added to cells, Gemcitabine (a known pancreatic cancer chemotherapeutic agent) and DMSO were used as positive and negative control, respectively. After 8, 24, & 48 hours incubation with test compounds, cells were lysed in buffer containing the caspase 3/7 or 8 or 9 substrate and a stable luciferase in proprietary buffers. The lysates were transferred to white opaque plates before measuring luminescence in a Tecan Safire instrument. Parallel plates treated identically, were used to determine viable cells. All caspase activities were corrected for the number of viable cells.
Same assay was repeated using LNCaP prostate cancer cell lines (FIG. 12). […] The results are shown in FIG. 12 at 24 hours incubation when the caspase activities peaked.

[5] = In vitro metabolism in human plasma; format: in vitro ADME; conditions: 37° C.; FIG. 13
Description: To obtain some insights on the metabolism of CB-03-10 in human and rat plasma, a specific assay was designed. Briefly the compound was incubated at different time in human and rat plasma at 37° C. After incubation the samples were tested for presence of the intact compound by liquid chromatography.

[6] = test system: PSA secretion from LNCaP prostate cancer cells; test: PSA secretion from LNCaP cells (Elisa); format: cell-based; conditions: Homo sapiens, 48 hours, read-out: IC50, inhibition of PSA secretion
Description: Prostate-specific antigen, or PSA, is a protein produced by cells of the prostate gland. The PSA test measures the level of PSA in a person's blood. The blood level of PSA is often elevated in men with prostate cancer and it used as surrogate marker to test prostate cancer progression in human population. After the observation that CB-03-10 was able to inhibit in vivo the growth of prostate cancer, the capability of the compound to inhibit in vitro PSA secretion from cancer cells was determined. […] After 48 hours incubation with test compounds, supernatants were harvested and tested with an Elisa assay for PSA and same cells were lysed for cell viability assessment.

CCCCC(=O)O[C@]1(C(=O)COC(=O)CC)CC[C@H]2[C@@H]3CCC4=CC(=O)CC[C@]4(C)[C@H]3CC[C@@]21C [CB-03-10, cortexolone 17α-valerate-21-propionate] gave a pIC50 ([1]; Example 7, Experiment 1, read-out: IC50 (microM) on Stimulated PBMC) of 3.97, a pIC50 ([1]; Example 7, Experiment 2, read-out: IC50 (microM) on Stimulated PBMC) of 4.03 and an inhibition at 0.8 µM ([2]; HT-29, 0.8 micromolar) of 0.44%. For the same compound, the inhibition at 4 µM ([2]; HT-29, 4 micromolar) was 14.2%, the inhibition at 20 µM ([2]; HT-29, 20 micromolar) was 25.5% and the inhibition at 100 µM ([2]; HT-29, 100 micromolar) was 89.8%. The inhibition at 500 µM ([2]; HT-29, 500 micromolar) was 92.1%, the pIC50 [3] was 4.74 and the pIC50 (MDA-MB-231 TNBC cells) was 3.97. For the same compound, the pIC50 (wild type AR (AR-LBD)) was 5.96, the “GR agonist activity relative to 50 nM Dex” value (Glucocorticoid Receptor) was 20% and the “cells in apoptosis (early and late), total” value (MiaPaca2 cells) was 28%. The “induction of Initiator (8 and 9) and Effector (3/7) caspase activities” value [4] was “better than Enzalutamide”, the “degradation in human plasma” value [5] was “rapidly degraded to CB-03-05” and the pIC50 [6] was 5.05.

— patent publication US10183030B2, “17α,21-diesters of cortexolone for use in the treatment of tumors” (COSMO TECHNOLOGIES LTD., priority 2014, dated 2019)
